Columns and labels:
mammalian cells = details: cited from earlier work
Text: In this work, we report the use of A200 as a thermoresponsive protein tag for the production and purification of the following two AMPs, using Escherichia coli as a cell factory: ABP-CM4 (CM4), a 35 amino acid antimicrobial peptide, isolated from the haemolymph of the silkworm Bombyx mori; and Synoeca-MP (Synoeca), a 14 amino acid antimicrobial peptide, isolated from the venom of the Synoeca surinama wasp. CM4 is a member of the cecropin family of peptides, with antibacterial, antifungal, and antitumor activities, while showing no toxicity towards mammalian cells [[26],[28],[29], ...

B. cenocepacia IST4113 = test: Broth microdilution MIC / growth inhibition; assay type: cell-based, Burkholderia cenocepacia; details: 18 h at 37 °C, OD600nm; for MIC: broth microdilution in MHB, at least three independent replicates, range up to 200 mg/L
Protocol: (§1) The antibacterial activity of free CM4 and Synoeca was evaluated by determination of the minimum inhibitory concentration (MIC) against Gram-negative (E. coli HB101, P. aeruginosa ATCC10145, B. cenocepacia IST439, B. cenocepacia IST4113, and K. pneumoniae) and Gram-positive (S. aureus ATCC6538 and S. epidermidis) bacteria. The AMPs were incubated with bacterial suspensions and assessed for bacterial growth, with the MIC defined as the lowest concentration of AMPs that inhibited the visible growth of bacteria (Figure 5).
(§2) E. coli XL1-Blue and BL21(DE3) strains were used for the cloning and production steps, respectively. E. coli HB101, S. aureus ATCC6538, P. aeruginosa ATCC10145, B. cenocepacia IST439, B. cenocepacia IST4113, and clinical isolates of K. pneumoniae and S. epidermidis were used in the broth microdilution MIC assays. The clonal variants of B. cenocepacia were isolated, with a 3-year difference, from the same cystic fibrosis (CF) patient.
(§3) The antibacterial activity of the isolated AMPs was assessed via broth microdilution method to determine the MIC against clinically relevant Gram-negative and Gram-positive bacteria—E. coli HB101, P. aeruginosa ATCC10145, B. cenocepacia IST439, B. cenocepacia IST4113, K. pneumoniae isolate, S. aureus ATCC6538 and S. epidermidis isolate—following the European Committee on Antimicrobial Susceptibility Testing (EUCAST) and the Clinical Laboratory Standards Institute (CLSI) guidelines. A detailed description of the method is provided by Wiegand et al.. Briefly, stock solutions of 2 mg/mL of AMP in sterile mQ water were used for the preparation of two-fold serial dilutions in MHB, to obtain final testing concentrations within the range of 0.39–100 mg/L (200 mg/L for B. cenocepacia strains). For the MIC assays, 50 μL of protein solution and 50 μL of bacterial suspensions in MHB (1 × 10^6 CFUs/mL) were mixed in 96-well plates (Nunc™ Edge 2.0 96-well plates, Thermo Scientific™, Waltham, Massachusetts, EUA) and incubated for 18 h at 37 °C. Growth inhibition was assessed by measuring optical density at 600 nm (OD600nm). The MIC was determined as the lowest concentration of antimicrobial peptide that inhibited the visible growth of the testing bacteria. At least three independent replicates were performed for each peptide and bacterial strain. Data were analysed by GraphPad Prism 6 Software (GraphPad Software, Inc., La Jolla, CA, USA).

B. cenocepacia IST439 = test: Broth microdilution MIC / growth inhibition; assay type: cell-based, Burkholderia cenocepacia; details: 18 h at 37 °C, OD600nm; for MIC: broth microdilution in MHB, at least three independent replicates, range up to 200 mg/L
Protocol: as §1, §2, §3

E. coli HB101 = test: Broth microdilution MIC / growth inhibition; assay type: cell-based, Escherichia coli; details: 18 h at 37 °C; for MIC: E. coli HB101, broth microdilution in MHB, OD600nm, at least three independent replicates, range 0.39–100 mg/L; for growth inhibition (complete inhibition): E. coli, within tested range 0.39–100 mg/L
Protocol: as §1, §2, §3

S. epidermidis isolate = test: Broth microdilution MIC / growth inhibition; assay type: cell-based, Staphylococcus epidermidis; details: 18 h at 37 °C; for MIC: S. epidermidis clinical isolate, broth microdilution in MHB, OD600nm, at least three independent replicates, range 0.39–100 mg/L; for growth inhibition (complete inhibition): S. epidermidis, within tested range 0.39–100 mg/L
Protocol: as §1, §2, §3

P. aeruginosa ATCC10145 = test: Broth microdilution MIC / growth inhibition; assay type: cell-based, Pseudomonas aeruginosa; details: 18 h at 37 °C, OD600nm; for MIC: P. aeruginosa ATCC10145, broth microdilution in MHB, at least three independent replicates, range 0.39–100 mg/L; for mean value of growth inhibition: P. aeruginosa
Protocol: as §1, §2, §3

S. aureus ATCC6538 = test: Broth microdilution MIC / growth inhibition; assay type: cell-based, Staphylococcus aureus; details: 18 h at 37 °C; for MIC: S. aureus ATCC6538, broth microdilution in MHB, OD600nm, at least three independent replicates, range 0.39–100 mg/L; for growth inhibition (complete inhibition): S. aureus, within tested range 0.39–100 mg/L
Protocol: as §1, §2, §3

K. pneumoniae isolate = test: Broth microdilution MIC / growth inhibition; assay type: cell-based, Klebsiella pneumoniae; details: 18 h at 37 °C, OD600nm; for MIC: K. pneumoniae clinical isolate, broth microdilution in MHB, at least three independent replicates, range 0.39–100 mg/L
Protocol: as §1, §2
as §3, with “For the MIC assays, 50 μL of protein solution and 50 μL of bacterial suspensions in MHB (1 × 10^6 CFUs/mL) were mixed in 96-well plates (Nunc™ Edge 2.0 96-well plates, Thermo Scientific™, Waltham, Massachusetts, EUA) and incubated for 18 h at 37 °C.” left out, “At least three independent replicates were performed for each peptide and bacterial strain.” left out

ABP-CM4
toxicity towards mammalian cells (mammalian cells; mammalian cells): no toxicity | MIC (B. cenocepacia IST4113): 200.00 µg/mL | growth inhibition (B. cenocepacia IST4113; peptide 100.00 mg/L): around 75% | mean value of growth inhibition (B. cenocepacia IST4113; peptide 200.00 mg/L): 100% | MIC (B. cenocepacia IST439): ~200.00 µg/mL | growth inhibition (B. cenocepacia IST439; peptide 100.00 mg/L): around 75% | MIC (E. coli HB101): 50.00 µg/mL | growth inhibition (complete inhibition) (E. coli HB101): 100% | MIC (S. epidermidis isolate): 12.50 µg/mL | growth inhibition (complete inhibition) (S. epidermidis isolate): 100% | MIC (P. aeruginosa ATCC10145): >100.00 µg/mL | mean value of growth inhibition (P. aeruginosa ATCC10145; peptide 100.00 mg/L): 25% | MIC (S. aureus ATCC6538): 3.13 µg/mL | growth inhibition (complete inhibition) (S. aureus ATCC6538): 100% | MIC (K. pneumoniae isolate): 50.00 µg/mL

Synoeca-MP
cytotoxicity against mammalian cell lines (mammalian cells; mammalian cell lines): no significant cytotoxicity | MIC (B. cenocepacia IST4113): 12.50 µg/mL | MIC (B. cenocepacia IST439): 12.50 µg/mL | MIC (E. coli HB101): 25.00 µg/mL | growth inhibition (complete inhibition) (E. coli HB101): 100% | MIC (S. epidermidis isolate): 6.25 µg/mL | growth inhibition (complete inhibition) (S. epidermidis isolate): 100% | MIC (P. aeruginosa ATCC10145): >100.00 µg/mL | mean value of growth inhibition (P. aeruginosa ATCC10145; within tested range 0.39–100 mg/L): lower than 5% | MIC (S. aureus ATCC6538): 1.56 µg/mL | growth inhibition (complete inhibition) (S. aureus ATCC6538): 100% | MIC (K. pneumoniae isolate): >100.00 µg/mL | mean value of growth inhibition (K. pneumoniae isolate; K. pneumoniae, within tested range 0.39–100 mg/L): lower than 5%
